Experimental data from US11352370B2, “Mutant KRAS inhibitors” (H. LEE MOFFITT CANCER CENTER AND RESEARCH INSTITUTE, INC., priority 2015, dated 2022).

Biological target: mt G12D KRas (Homo sapiens, UniProt P01116, G12D)
Assay: Mant-GDP assay (inhibition of GTP displacing mant-GDP)
Type: binding
Conditions: for displacing mant-GDP from mt G12D KRas (in words): assay optimization, FIG. 1A

mt G12D KRas, sequence (P01116 1-188 isoform P01116-2 G12D): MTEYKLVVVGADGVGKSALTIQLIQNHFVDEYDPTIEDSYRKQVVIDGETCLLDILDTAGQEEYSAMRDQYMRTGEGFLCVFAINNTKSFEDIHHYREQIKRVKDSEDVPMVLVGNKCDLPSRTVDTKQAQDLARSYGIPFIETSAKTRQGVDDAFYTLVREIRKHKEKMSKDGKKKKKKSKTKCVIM

| SMILES | displacing mant-GDP from mt G12D KRas (in words) | IC50 (GTP titration in the absence of compounds, FIG. 3C, read-out: IC50 of GTP to displace mant-GDP) |
| --- | --- | --- |
| Nc1nc2c(ncn2[C@@H]2O[C@H](COP(=O)(O)OP(=O)(O)O)[C@@H](O)[C@H]2O)c(=O)[nH]1 [GDP] | very effective |  |
| Nc1nc2c(ncn2[C@@H]2O[C@H](COP(=O)(O)OP(=O)(O)OP(=O)(O)O)[C@@H](O)[C@H]2O)c(=O)[nH]1 [GTP] | very effective | 620 nM |
